Measured values published in patent US20240050442A1, “TRIMEPRAZINE DERIVATIVES AND COMPOSITIONS COMPRISING THE SAME FOR TREATING A NEUROPSYCHIATRIC DISORDER” (CENTRE NATIONAL DE LA RECHERCHE SCIENTIFIQUE, priority 2020, published 2024).

Tests used:
Assay type in all cases: in vivo
[1] = tested on: Fmr1-KO mice; experiment: Homing behaviour test (social discrimination, cognition); conditions: 13 post-natal days; for latency time (homing test): 0.175 mg/kg BW intraperitoneal, FIG. 2A
Protocol: The experiments were performed following the ARRIVE (Animals in Research: Reporting In Vivo Experiments) guidelines. Fmr1-knockout (KO) and WT mice on a C57BL/6J congenic background were obtained from Prof. R. Willemsen. All animals were generated and housed in groups of 4 in standard laboratory conditions (22° C., 55±10% humidity, 12-h light/12-h dark diurnal cycles) with food and water provided ad libitum. Experimental testing was performed between 12:00 and 16:30 each day during the 12-h light period. Only male mice and rats were used. Animal care was conducted in accordance with the European Community Directive 2010/63/EU. The experiments were approved by the local ethics committee (Comité d′Ethique en Expérimentation Animale, by the French Ministry of Research. Trimeprazine and opipramol were purchased from Prestwich Library. Both molecules were diluted in DMSO at the stock concentration of 100 mM. All compounds injected intraperitoneally were administered in a volume of 1.5 ml per kg body weight at the amount indicated in the legends of each figure. Homing Behaviour Test: At PND 13, the litter was separated from the dam and kept for 30 min in a temperature-controlled holding cage. Then, each mouse pup was placed into a Plexiglas box whose floor was covered for ⅓ with bedding from the pup's home cage and for ⅔ with clean bedding. The pup was located at the side of the box covered by clean bedding, and its behaviour was videorecorded for 4 min for subsequent analysis. The following parameters were scored using the Observer 3.0 software (Noldus Information Technology): latency (s) to reach the home-cage bedding area; total time (s) spent by the pup in the nest bedding area.

[2] = tested on: Fmr1-KO mice; experiment: Social interaction test; conditions: 28-30 post-natal days, 0.25 mg/kg BW intraperitoneal
Protocol: The experiments were performed following the ARRIVE (Animals in Research: Reporting In Vivo Experiments) guidelines. Fmr1-knockout (KO) and WT mice on a C57BL/6J congenic background were obtained from Prof. R. Willemsen. All animals were generated and housed in groups of 4 in standard laboratory conditions (22° C., 55±10% humidity, 12-h light/12-h dark diurnal cycles) with food and water provided ad libitum. Experimental testing was performed between 12:00 and 16:30 each day during the 12-h light period. Only male mice and rats were used. Animal care was conducted in accordance with the European Community Directive 2010/63/EU. The experiments were approved by the local ethics committee (Comité d'Ethique en Expérimentation Animale, by the French Ministry of Research. Trimeprazine and opipramol were purchased from Prestwich Library. Both molecules were diluted in DMSO at the stock concentration of 100 mM. All compounds injected intraperitoneally were administered in a volume of 1.5 ml per kg body weight at the amount indicated in the legends of each figure. Social Interaction Test: The 28-30-day-old mice were individually habituated to the experimental apparatus (a Plexiglas cage measuring 30×30×30 cm) for 5 min the day before testing. On the test day, the animals were isolated for 2 h before testing, to enhance their social motivation and thus facilitate the expression of social interaction during testing. The test consisted of placing 2 animals (same treatment and weight) into the test cage for 10 min. The behaviour of the animals was recorded using a video camera with zoom lens, DVD recorder and LCD monitor. Behaviour was assessed per single animal and analyzed by a trained observer who was unaware of genotype and treatment conditions using the Observer XT software (Noldus, The Netherlands). The following parameters were scored: a. Social Activities: • 1. Social sniffing: sniffing any part of the body of the partner, including the anogenital area. • 2. Following: moving in the direction of or pursuing the partner, who moves away. • 3. Mutual circle: partners are mutually sniffing each other's anogenital region, while describing tight circles with their reciprocal following movements. • 4. Pushing past: the focal animal passes between the wall of the cage and the body of the partner by pushing its own body through the narrow space available. • 5. Crawling under/over: the focal animal crawls underneath or over the partner's body, crossing it transversely from one side to the other. • 6. Social grooming: chewing and licking the fur of the partner. • 7. Social rest: the focal animal is being groomed by the partner. • 8. […] The average frequency of total social activities, quantified as number of events during the 10 min testing session, was graphed.

[3] = tested on: Fmr1-KO mice; experiment: Novel object recognition test (working memory)
Protocol: The experiments were performed following the ARRIVE (Animals in Research: Reporting In Vivo Experiments) guidelines. Fmr1-knockout (KO) and WT mice on a C57BL/6J congenic background were obtained from Prof. R. Willemsen. All animals were generated and housed in groups of 4 in standard laboratory conditions (22° C., 55±10% humidity, 12-h light/12-h dark diurnal cycles) with food and water provided ad libitum. Experimental testing was performed between 12:00 and 16:30 each day during the 12-h light period. Only male mice and rats were used. Animal care was conducted in accordance with the European Community Directive 2010/63/EU. The experiments were approved by the local ethics committee (Comité d′Ethique en Expérimentation Animale, by the French Ministry of Research. Trimeprazine and opipramol were purchased from Prestwich Library. Both molecules were diluted in DMSO at the stock concentration of 100 mM. All compounds injected intraperitoneally were administered in a volume of 1.5 ml per kg body weight at the amount indicated in the legends of each figure. On day 1 and 2, mice were habituated for 10 min to the maze in which the task was performed. On the third day, mice were put back in the maze for 10 min, two identical objects were presented and the time that the mice spent exploring each object was recorded. The mice were again placed in the maze 5 minutes later for 10 min, one of the familiar objects was replaced with a novel object and the total time spent exploring each of the two objects (novel and familiar) was computed. Object exploration was defined as the orientation of the nose to the object at a distance of less than 2 cm. A discrimination index was calculated as the difference between the times spent exploring either the novel or familiar object divided by the total time exploring the two objects. A higher discrimination index is considered to reflect greater memory retention for the familiar object. Pharmacological treatment with SM2 and SM4 was performed 30 minutes before training.

[4] = Fmr1-KO adolescent mice, acute treatment

| Compound | latency time (time the mouse pups need to find the mother's litter) ([1]; Fmr1-KO infant mice, 0.25 mg/kg BW intraperitoneal, FIG. 1A) | number of social interactions [2, 4] | number of social interactions ([2]; WT adolescent mice) | discrimination index ([3]; Fmr1-KO adult mice 8 weeks, 0.3 mg/kg BW intraperitoneal 30 minutes before training, FIG. 3A) | discrimination index ([3]; WT adult mice 8 weeks, 0.3 mg/kg BW intraperitoneal 30 minutes before training, FIG. 3A) | latency time (homing test) ([1]; Fmr1-KO infant mice) | latency time (homing test) ([1]; WT infant mice) | discrimination index ([3]; Fmr1-KO adult mice 8 weeks, 0.18 mg/kg BW intraperitoneal 30 minutes before training, FIG. 3B) | discrimination index ([3]; WT adult mice 8 weeks, 0.18 mg/kg BW intraperitoneal 30 minutes before training, FIG. 3B) |
| --- | --- | --- | --- | --- | --- | --- | --- | --- | --- |
| CC(CN(C)C)CN1c2ccccc2Sc2ccccc21 (centres unmarked) [SM4, Trimeprazine] | normalized | normalized | does not modify the social interaction behaviour | Discrimination index is the same in treated WT and Fmr-KO mice | has no impact on the behaviour | – | – | – | – |
| OCCN1CCN(CCCN2c3ccccc3C=Cc3ccccc32)CC1 [SM2, opipramol] | – | does not have a beneficial impact | has a negative impact | – | – | does not have a beneficial impact | has a negative impact | not normalized | worsened the behaviour |
